Assay results reported in patent US20250034216A1, “STEREOSELECTIVE COVALENT LIGANDS FOR ONCOGENIC AND IMMUNOLOGICAL PROTEINS” (The Scripps Research Institute, priority 2021, published 2025).

How the values were obtained:
Assay in all cases: IA-DTB cysteine engagement
Format in all cases: binding
NT5DC2_C507 = target: T1, NT5DC2_C507 (Homo sapiens, UniProt Q9H857); conditions: 22Rv1 cells, 20 μM probe, 1 h, relative to DMSO
T1 construct: endogenous in cells; host or cells: 22Rv1
T1 sequence (Q9H857 1-520): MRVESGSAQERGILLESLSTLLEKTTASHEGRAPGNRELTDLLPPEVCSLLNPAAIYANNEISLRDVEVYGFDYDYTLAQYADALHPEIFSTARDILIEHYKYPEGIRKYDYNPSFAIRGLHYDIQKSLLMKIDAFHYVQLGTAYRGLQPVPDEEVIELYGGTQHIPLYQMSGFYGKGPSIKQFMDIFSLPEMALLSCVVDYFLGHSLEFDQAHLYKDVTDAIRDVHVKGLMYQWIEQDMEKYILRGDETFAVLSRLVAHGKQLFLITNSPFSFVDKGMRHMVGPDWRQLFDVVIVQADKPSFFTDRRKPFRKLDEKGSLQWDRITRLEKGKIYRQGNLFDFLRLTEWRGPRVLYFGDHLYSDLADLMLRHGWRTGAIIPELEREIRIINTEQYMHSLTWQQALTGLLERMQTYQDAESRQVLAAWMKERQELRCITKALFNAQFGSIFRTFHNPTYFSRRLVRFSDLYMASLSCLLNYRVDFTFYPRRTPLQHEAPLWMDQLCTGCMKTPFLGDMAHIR
Outline: (§1)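 Competitive chemoproteomics: residual cysteine reactivity toward IA-DTB in lysates from probe-treated cells was quantified by TMT reporter ions relative to DMSO-treated controls. Replicates sharing cell line, probe, concentration and duration were averaged.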

SLC25A20_C283 = target: T2, SLC25A20_C283 (Homo sapiens, UniProt O43772); conditions: 22Rv1 cells, relative to DMSO; for % engagement SLC25A20_C283: 20 μM probe, 1 h; for % engagement SLC25A20_283: 5 μM probe, 1 h (FIG. 5B)
T2 construct: endogenous in cells; host or cells: 22Rv1
T2 sequence (O43772 1-301): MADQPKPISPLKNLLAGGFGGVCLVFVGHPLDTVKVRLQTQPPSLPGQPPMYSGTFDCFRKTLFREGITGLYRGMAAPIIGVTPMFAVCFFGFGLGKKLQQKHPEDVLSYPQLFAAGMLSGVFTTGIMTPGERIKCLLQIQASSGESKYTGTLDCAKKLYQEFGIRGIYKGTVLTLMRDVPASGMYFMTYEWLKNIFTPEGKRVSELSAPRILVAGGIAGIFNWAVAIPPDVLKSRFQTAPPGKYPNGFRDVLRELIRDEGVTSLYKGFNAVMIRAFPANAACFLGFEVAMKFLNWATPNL
Outline: as §1

CRYBG1_C1574 = target: T3, CRYBG1_C1574 (Homo sapiens, UniProt Q9Y4K1); conditions: 22Rv1 cells, 20 μM probe, 1 h, relative to DMSO
T3 construct: endogenous in cells; host or cells: 22Rv1
T3 sequence (Q9Y4K1 whole entry): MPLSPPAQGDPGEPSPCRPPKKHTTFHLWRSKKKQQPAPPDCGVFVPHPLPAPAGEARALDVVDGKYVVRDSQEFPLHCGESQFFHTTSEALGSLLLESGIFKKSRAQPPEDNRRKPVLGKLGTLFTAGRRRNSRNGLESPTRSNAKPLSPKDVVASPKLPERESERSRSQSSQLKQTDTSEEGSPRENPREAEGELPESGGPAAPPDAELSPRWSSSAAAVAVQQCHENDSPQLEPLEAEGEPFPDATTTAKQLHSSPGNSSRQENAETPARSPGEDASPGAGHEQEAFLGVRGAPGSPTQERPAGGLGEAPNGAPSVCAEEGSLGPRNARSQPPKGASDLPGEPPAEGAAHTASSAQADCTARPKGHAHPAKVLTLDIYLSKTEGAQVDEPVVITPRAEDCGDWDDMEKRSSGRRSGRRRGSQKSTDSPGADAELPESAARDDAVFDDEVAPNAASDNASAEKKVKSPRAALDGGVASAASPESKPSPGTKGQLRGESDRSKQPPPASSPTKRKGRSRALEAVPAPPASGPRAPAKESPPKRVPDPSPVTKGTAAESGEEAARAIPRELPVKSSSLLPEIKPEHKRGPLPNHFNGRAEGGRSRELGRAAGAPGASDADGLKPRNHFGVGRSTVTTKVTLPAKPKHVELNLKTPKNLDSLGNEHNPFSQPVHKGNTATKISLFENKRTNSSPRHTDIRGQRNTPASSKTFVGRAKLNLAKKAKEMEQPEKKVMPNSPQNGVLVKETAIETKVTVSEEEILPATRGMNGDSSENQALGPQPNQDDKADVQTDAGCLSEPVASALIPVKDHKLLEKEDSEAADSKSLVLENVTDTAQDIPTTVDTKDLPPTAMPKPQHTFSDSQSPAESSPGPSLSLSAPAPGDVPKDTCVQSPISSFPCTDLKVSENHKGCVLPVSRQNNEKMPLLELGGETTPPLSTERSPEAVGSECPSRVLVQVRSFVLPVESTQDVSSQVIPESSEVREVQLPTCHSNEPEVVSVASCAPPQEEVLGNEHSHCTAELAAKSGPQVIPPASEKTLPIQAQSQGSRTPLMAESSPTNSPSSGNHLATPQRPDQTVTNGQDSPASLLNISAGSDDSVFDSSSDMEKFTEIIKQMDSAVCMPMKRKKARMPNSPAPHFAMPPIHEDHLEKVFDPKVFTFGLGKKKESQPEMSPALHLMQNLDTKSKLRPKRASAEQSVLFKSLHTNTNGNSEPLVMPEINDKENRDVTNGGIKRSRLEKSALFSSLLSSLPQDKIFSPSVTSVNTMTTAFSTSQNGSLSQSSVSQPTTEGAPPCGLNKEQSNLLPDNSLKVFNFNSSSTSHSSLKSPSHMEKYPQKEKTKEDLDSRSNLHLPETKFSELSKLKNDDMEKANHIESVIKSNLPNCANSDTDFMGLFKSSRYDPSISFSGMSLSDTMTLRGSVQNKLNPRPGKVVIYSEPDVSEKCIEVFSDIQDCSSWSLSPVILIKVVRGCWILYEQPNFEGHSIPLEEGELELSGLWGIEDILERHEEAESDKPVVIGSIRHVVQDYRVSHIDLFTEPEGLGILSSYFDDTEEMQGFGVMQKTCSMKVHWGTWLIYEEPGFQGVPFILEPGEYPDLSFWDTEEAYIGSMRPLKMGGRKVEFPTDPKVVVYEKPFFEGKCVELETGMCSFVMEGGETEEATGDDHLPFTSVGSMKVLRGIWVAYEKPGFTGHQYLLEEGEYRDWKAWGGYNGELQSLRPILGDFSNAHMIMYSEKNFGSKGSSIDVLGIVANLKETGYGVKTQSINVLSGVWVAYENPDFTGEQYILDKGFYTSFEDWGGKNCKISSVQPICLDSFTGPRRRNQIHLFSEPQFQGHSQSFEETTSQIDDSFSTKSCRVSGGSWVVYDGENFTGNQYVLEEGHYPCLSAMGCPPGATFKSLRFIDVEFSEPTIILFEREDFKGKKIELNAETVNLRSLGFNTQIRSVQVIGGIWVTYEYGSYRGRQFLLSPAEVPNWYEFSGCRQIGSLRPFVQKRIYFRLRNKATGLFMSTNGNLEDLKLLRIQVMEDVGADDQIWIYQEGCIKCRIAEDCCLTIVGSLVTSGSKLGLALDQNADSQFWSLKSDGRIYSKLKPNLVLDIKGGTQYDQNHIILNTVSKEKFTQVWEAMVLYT
Outline: as §1

DDX39B_C87 = target: T4, DDX39B_C87 (Homo sapiens, UniProt Q13838); conditions: 22Rv1 cells, 20 μM probe, 1 h, relative to DMSO
T4 construct: endogenous in cells; host or cells: 22Rv1
T4 sequence (Q13838 whole entry): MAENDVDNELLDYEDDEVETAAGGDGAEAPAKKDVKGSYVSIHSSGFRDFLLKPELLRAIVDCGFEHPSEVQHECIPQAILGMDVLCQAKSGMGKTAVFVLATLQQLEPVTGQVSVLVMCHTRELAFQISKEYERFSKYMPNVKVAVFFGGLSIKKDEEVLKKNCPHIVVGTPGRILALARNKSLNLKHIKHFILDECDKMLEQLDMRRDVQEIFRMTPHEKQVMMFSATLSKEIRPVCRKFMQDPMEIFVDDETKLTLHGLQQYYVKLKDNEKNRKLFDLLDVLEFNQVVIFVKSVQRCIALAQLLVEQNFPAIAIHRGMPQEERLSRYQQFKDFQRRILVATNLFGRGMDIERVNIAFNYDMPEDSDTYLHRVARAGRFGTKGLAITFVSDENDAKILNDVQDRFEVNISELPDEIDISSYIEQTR
Outline: as §1

SMILES	% engagement NT5DC2_C507 (NT5DC2_C507) [%]	% engagement SLC25A20_C283 (SLC25A20_C283) [%]	% engagement CRYBG1_C1574 (CRYBG1_C1574) [%]	% engagement DDX39B_C87 (DDX39B_C87) [%]	% engagement SLC25A20_283 (SLC25A20_C283) [%]
C=CC(=O)N1C[C@H](c2ccc(Br)cc2)[C@@H]1C(=O)Nc1cccc2cccnc12 [MY-1B, (2R,3S)-1-acryloyl-3-(4-bromophenyl)-N-(quinolin-8-yl)azetidine-2-carboxamide]	67.25	92	72	37	82.75
C=CC(=O)N1C[C@H](c2ccc(Br)cc2)[C@H]1C(=O)Nc1cccc2cccnc12 [MY-3A, (2S,3S)-1-acryloyl-3-(4-bromophenyl)-N-(quinolin-8-yl)azetidine-2-carboxamide]	50.5	66	28.5	23.5	–
C=CC(=O)N1C[C@@H](c2ccc(Br)cc2)[C@H]1C(=O)Nc1cccc2cccnc12 [MY-1A, (2S,3R)-1-acryloyl-3-(4-bromophenyl)-N-(quinolin-8-yl)azetidine-2-carboxamide]	83.75	37	23	44.5	–

The remaining lines, values ahead:

% engagement NT5DC2_C507 (NT5DC2_C507) [%]	% engagement SLC25A20_C283 (SLC25A20_C283) [%]	% engagement CRYBG1_C1574 (CRYBG1_C1574) [%]	% engagement DDX39B_C87 (DDX39B_C87) [%]	% engagement SLC25A20_283 (SLC25A20_C283) [%]	SMILES
57.5	−241	13.5	67.5	–	C=CC(=O)N1C[C@H](c2ccc(Br)cc2)[C@H]1C(=O)Nc1cccc2cccnc12 [MY-3B, (2S,3S)-1-acryloyl-3-(4-bromophenyl)-N-(quinolin-8-yl)azetidine-2-carboxamide]
–	–	–	–	20.50	CC#CC(=O)N1C[C@H](c2ccc(Br)cc2)[C@@H]1C(=O)Nc1cccc2cccnc12 [MY-45B, (2R,3S)-3-(4-bromophenyl)-1-(but-2-ynoyl)-N-(quinolin-8-yl)azetidine-2-carboxamide]
